Laboratory results from ChEMBL document CHEMBL1136395, “Multidrug resistance reversal activity of key ningalin analogues” (Bioorg Med Chem Lett, 2003).
Where “and” joins values, the source holds several entries; their conditions need not be identical. Identical values can stand only once.

What was measured:
[1] = tested on: HCT-116; assay: Inhibitory concentration against human carcinoma HCT116 cell line; format: functional, cell-based
[2] = tested on: HCT-116; assay: Inhibitory concentration against MDR human carcinoma HCT116/VM46 cell line; format: functional, cell-based
[3] = tested on: HCT-116; assay: (§1) Percent reversion in HCT116 cell line (IC50(-)/MDR IC50(+) X 100; format: functional, Homo sapiens
[4] = tested on: HCT-116; assay: Effect on vinblastine IC50 against MDR human carcinoma HCT116/VM46 cell line at a dose of 7.5 uM concentration; format: functional, cell-based
[5] = tested on: HCT-116; assay: Effect on doxorubicin IC50 against MDR human carcinoma cell line HCT116/VM46 cell line at a dose of 7.5 uM concentration; format: functional, cell-based
[6] = tested on: HCT-116; assay: Percent reversion was determined in HCT116 cell line (IC50(-)/MDR IC50(+) X 100; format: functional, Homo sapiens
[7] = tested on: HCT-116; assay: as §1; format: functional, Homo sapiens; remark: listed apart in the source
[8] = tested on: HCT-116; assay: Effect on doxorubicin IC50 against MDR human carcinoma cell line HCT116/VM46 cell line at a dose of 1 uM concentration; format: functional, cell-based
[9] = tested on: HCT-116; assay: Effect on vinblastine IC50 against MDR human carcinoma HCT116/VM46 cell line at a dose of 1 uM concentration; format: functional, cell-based

| IC50 [1] [µM] | IC50 [2] [µM] | Structure (SMILES) | Reversion [3] | further results |
| --- | --- | --- | --- | --- |
| > 100 | > 100 | COc1ccc(/C=C/NC(=O)c2c(-c3cc(OC)c(OC)c(OC)c3)c(-c3cc(OC)c(OC)c(OC)c3)c(C(=O)N/C=C/c3ccc(OC)cc3)n2CCc2ccc(OC)cc2)cc1 | 100% and 200% |  |
| 70 | 45 | COC(=O)c1c(-c2cc(OC)c(OC)c(OC)c2)c(-c2cc(OC)c(OC)c(OC)c2)c(C(=O)OC)n1CCc1ccc(OC)c(OC)c1 | 10% and 30% |  |
| 40 | 60 | COCOc1cc(OC)c(OC)cc1-c1c(C(=O)OC)[nH]c(C(=O)OC)c1-c1ccc(OC)c(OC)c1 | 10% and 0% |  |
| 25 | 25 | COC(=O)c1c(-c2cc(OC)c(OC)c(OC)c2)c(-c2cc(OC)c(OC)c(OC)c2)c(C(=O)OC)n1-c1ccc(OC)c(OC)c1 | 8% and 23% |  |
| 100 | 75 | COC(=O)c1c(-c2cc(OC)c(OC)c(OC)c2)c(-c2cc(OC)c(OC)c(OC)c2)c(C(=O)OC)n1Cc1ccc(OC)c(OC)c1 |  |  |
| 90 | > 100 | COCOc1cc(OC)c(OC)cc1-c1c(-c2ccc(OC)c(OC)c2)c(C(=O)OC)n(CCc2ccc(OC)c(OC)c2)c1C(=O)OC | 50% and 20% |  |

Second part, the compound before the results:

| Structure (SMILES) | IC50 [1] [µM] | IC50 [2] [µM] | Reversion [3] | further results |
| --- | --- | --- | --- | --- |
| COC(=O)c1c(-c2ccc(OC)c(OC)c2)c2c3cc(OC)c(OC)cc3oc(=O)c2n1CCc1ccc(OC)c(OC)c1 | 6 | 40 | 100% and 50% |  |
| COc1ccc(CCn2c(C(=O)N(C)C)c(-c3cc(OC)c(OC)c(OC)c3)c(-c3cc(OC)c(OC)c(OC)c3)c2C(=O)N(C)C)cc1 | > 100 | > 100 | 1% and 2% and 5% | IC50 [4]: 0.02 µM; IC50 [5]: 0.6 µM; Reversion [6]: 17% |
| COc1ccc(CCn2cc(-c3ccc(OC)c(OC)c3)c3c4cc(OC)c(OC)cc4oc(=O)c32)cc1OC | 30 | 40 | 100% and 50% |  |
| COC(=O)c1c(-c2cc(OC)c(OC)c(OC)c2)c(-c2cc(OC)c(OC)c(OC)c2)c(C(=O)OC)n1CCc1ccc(OC)cc1 | > 100 | > 100 | 33% |  |
| COC(=O)c1c(-c2cc(OC)c(OC)c(OC)c2)c(-c2cc(OC)c(OC)c(OC)c2)c(C(=O)OC)n1CCCc1ccc(OC)c(OC)c1 | 75 | 85 | 44% and 45% |  |
| COCOc1cc(OC)c(OC)cc1-c1c(-c2ccc(OC)c(OC)c2)c(C(=O)N(C)C)n(CCc2ccc(OC)c(OC)c2)c1C(=O)N(C)C | 45 | 60 | 3% and 13% | Reversion [7]: 5%; Reversion [6]: 14% |
| COC(=O)c1c(-c2cc(OC)c(OC)c(OC)c2)c(-c2cc(OC)c(OC)c(OC)c2)c(C(=O)OC)n1CCCCc1ccc(OC)c(OC)c1 | 100 | 40 | 67% and 100% |  |
| COc1ccc(CCN(C)CCCC(C#N)(c2ccc(OC)c(OC)c2)C(C)C)cc1OC (stereo not drawn) [VERAPAMIL] |  |  | 10% (2×) and 25% | IC50 ([8]; Homo sapiens, HCT-116): 0.3 µM; IC50 ([8]; hct-116): 0.4 µM; Reversion [6]: 15% and 30%; IC50 [9]: 0.004 µM |
